Measured values as given in patent US11453657B2 (GlaxoSmithKline Intellectual Property Development Limited, priority 2018, dated 2022).
Like-named read-outs stand apart in the source and are kept apart here.

System: P. falciparum infected erythrocytes
Test: P. falciparum growth inhibition assay ([3H]hypoxanthine incorporation)
Type: cell-based, Plasmodium falciparum
Conditions: Plasmodium falciparum, Erythrocyte
Method: P. falciparum Growth Inhibition Assay.
The sensitivity of P. falciparum infected erythrocytes to the compound was determined in duplicate using the [3H]hypoxanthine incorporation method with an inoculum of 0.5% parasitemia (ring stage) and 2% hematocrit. The parasites were grown in RPMI 1640, 25 mM HEPES and supplemented with 5% Albumax. Plates are incubated at 37° C., 5% CO2, 5% O2, 90% N2. After 24 h of incubation, [3H]hypoxanthine is added and plates are incubated for another 24 h. After that period, plates are harvested on a glass fiber filter using a TOMTEC Cell harvester 96. Filters are dried and melt on scintillator sheets and the bound radioactivity is quantified by use of a Wallac Microbeta Trilux (Model 1450 LS—Perkin Elmer). IC50s are determined using Grafit 7 program (Grafit program; Erithacus Software, Horley, Surrey, United Kingdom).
Each example compound was tested generally in accordance with the above-mentioned assay and the PfIC50 value for each compound is reported in the Table below and according to the following: […]

[1] = [3H]hypoxanthine incorporation, 0.5% parasitemia, 2% hematocrit, 48 h, read-out: PfIC50 Media

## O=C(c1ccc(OC[C@H](O)Cn2ncnn2)cc1)N1CC[C@@H](c2ccc(F)cc2)C1 [Example 13, ((S)-3-(4-Fluorophenyl)pyrrolidin-1-yl)(4-((R)-2-hydroxy-3-(2H-tetrazol-2-yl)propoxy)phenyl)methanone]
[1]
  IC50: < 100 nM
read-out: average PfIC50
  IC50: 54 nM

## O=C(c1ccc(OC[C@H](O)Cc2nnn[nH]2)cc1)N1CC[C@H](c2ccc(F)cc2)C1 [Example 25, ((R)-3-(4-fluorophenyl)pyrrolidin-1-yl)(4-((R)-2-hydroxy-3-(1H-tetrazol-5-yl)propoxy)phenyl)methanone]
[1]
  IC50: 1000 to 5000 nM
